Data published in US7759313B2, “Induction method for cell differentiation” (Obschetstvo S Ogranichennoi Otvetstvennostiyu …, priority 2002, dated 2010).
Read-outs that look alike come from different tables or passages of the source.

Tests used:
M-6 melanoma = assay: Morphologic parameters of M-6 melanoma in nude mice (light microscopy); assay type: in vivo, mouse (mouse (mouse (mouse (mouse (mouse (mouse (mouse (mouse (mouse (mouse (mouse (human melanoma xenograft) melanoma xenograft) melanoma xenograft) melanoma xenograft) melanoma xenograft) melanoma xenograft) melanoma xenograft) melanoma xenograft) melanoma xenograft) melanoma xenograft) melanoma xenograft) melanoma xenograft)
Experimental: The study was conducted on 10-12 week old thymus free (nude) female Balb/C mice weighing 20-22 grams (breeding of the Russian Cancer Research Center (RCRC) named after N. N. Blokhin of the Russian Academy of Medical Sciences (RAMS)). A human melanoma strain earlier obtained from primary clinical material was taken from the bank of tumor strains of the RCRC of the RAMS for transplantation to thymus free “nude” mice. Tumor was disintegrated by Versen solution with vital Trypan blue staining and inoculated subcutaneously to mice in the amount of 1.6 million cells per mouse.
Dicarbamine was administered to mice intragastrically using a metal probe daily at dose 1.0 mg/kg beginning 4 days before the tumor inoculation and thereafter for 10-11 days (administration course up to 15 days). The mice were sacrificed with ether anesthesia in 12, 24 and 48 hours after the last administration.
Four morphologic parameters, such as the number of cells with pigment and the number of cells with apoptosis signs (capability to differentiate), the number of mitoses (proliferation activity), and necrosis area, were determined to monitor the degree of differentiation and proliferation of M-6 melanoma cells in the groups of control animals and in the Dicarbamine groups. These parameters were determined dynamically and correlated with general morphologic picture of a tumor growth as an integral sign. For this purpose, the tumors were removed from the mice, placed into formalin, and histologically processed for light microscopy.

[1] = assay type: in vivo, mice
Source text: (§1) Two groups of mice are used.

human melanoma Mel-6 = assay: Inoculated human melanoma Mel-6 growth dynamics in nude mice; assay type: in vivo
Experimental: The study was conducted on 10-12 week old thymus free “nude” female Balb/C mice weighting 20-22 grams (breeding of the RCRC named after N. N. Blokhin of the RAMS). The human melanoma strain Mel-6 earlier obtained from primary clinical material was taken from the bank of tumor strains of the RCRC of the RAMS for transplantation to thymus free mice.
Dicarbamine at the single doses 1.5 mg/kg and 4.5 mg/kg was p.o. administered daily to two mice groups for 3 weeks from the moment of the tumor development (from day 15 to day 36 from the tumor transplantation).
Measurement of the tumor was done at days 18, 25, 33, 39, 46 and 53 from the transplantation. The effect of Dicarbamine was assessed on the basis of the tumor growth dynamics for 8 weeks in multiple measurements of tumor volumes “V” according to the formula: […]
wherein L is length in mm, s is width in mm; and h is height in mm.
The ratio between volumes of tumors Vt/Vt−1 expressed as a percentage was then calculated and statistically processed according to the Student's method to calculate statistically significant difference.

Friend erythroblastosis = assay: Friend erythroblastosis, histological examination; assay type: in vivo, mice
Experimental: Friend erythroblastosis which was inoculated subcutaneously to DBA2 female mice via spleen cells was investigated.
Group 2—Reaferon at dose 100 thousand IU/kg was administered daily s.c. from day 3 to day 7 after inoculation;
Group 3—Dicarbamine at a single dose 4.5 mg/kg was administered p.o. from day 3 to day 7 after inoculation;
Group 4—Dicarbamine and Reaferon were administered simultaneously according to a similar scheme.
Material for light microscopy was taken from sacrificed animals at days 3, 7 and 14 after termination of therapy or administration of a physiological saline. Material for electronic microscopy was taken at days 7 and 14.
For histological examination, tumor pieces were fixed in 10% neutral formalin and imbedded into paraffin; slices obtained were stained with hematoxylin-eosin and examined for glycogen (polysaccharide) content using the periodic acid Schiff reaction, for RNA content according to Brachet, and for lipids and iron. Slices were examined and photographed using a Polivar light microscope (Austria).
The percentage of mitoses and cells with apoptosis, as well as areas of necrosis, were assessed during histological examination.

[2] = Peripheral blood leukocytes formula under Cyclophosphamide; assay type: in vivo, mice; conditions: mouse, in vivo
Source text: as §1

[3] = 1.0 mg/kg daily, 12 hours since withdrawal
[4] = 1.0 mg/kg daily, 24 hours since withdrawal
[5] = 1.0 mg/kg daily, 48 hours since withdrawal
[6] = Dicarbamine 4.5 mg/kg p.o. days 3-7

O=C(O)CCCC(=O)NCCc1c[nH]cn1 [Dicarbamine]
Apoptosis (M-6 melanoma; [3]): 0.1–0.2% | Cells with pigment (M-6 melanoma; [3]): 2–3% | Mitoses (M-6 melanoma; [3]): 3–5% | Apoptosis (M-6 melanoma; [4]): 0.2–0.3% | Cells with pigment (M-6 melanoma; [4]): 2–4% | Mitoses (M-6 melanoma; [4]): 3–5% | Necrosis area (M-6 melanoma; [4]): 7–9% | Apoptosis (M-6 melanoma; [5]): 0.2–0.3% | Cells with pigment (M-6 melanoma; [5]): 3–5% | Mitoses (M-6 melanoma; [5]): 3–5% | Necrosis area (M-6 melanoma; [5]): 8–10% | Necrosis area (M-6 melanoma; 1.0 mg/kg intragastrically daily up to 15 days, 12 hours since withdrawal): 6–7% | Cellularity of bone marrow (number of cells) ([1]; CPH 200 mg/kg (Dicarbamine group: 0.5 mg/kg 5 days prior and 5 days after), day 3): 14.5 ± 3.43 millions | Cellularity of bone marrow (number of cells) ([1]; day 5 after CPH): 21.55 ± 1.92 millions | Cellularity of bone marrow (number of cells) ([1]; day 7 after CPH): 32.35 ± 3.57 millions | Cellularity of bone marrow (number of cells) ([1]; day 10 after CPH): 33.8 ± 3.85 millions | Cellularity of bone marrow (number of cells) ([1]; day 13 after CPH): 32.6 ± 5.22 millions | Cellularity of bone marrow (number of cells) ([1]; day 17 after CPH): 28.25 ± 3.02 millions | Cellularity of bone marrow (number of cells) ([1]; day 21 after CPH): 30.4 ± 2.75 millions | V (tumor volume) M + m (human melanoma Mel-6; 1.5 mg/kg p.o. daily days 15-36, 18 day after inoculation): 21.8 + 12.8 | percent change in tumor volume Vt/Vt−1 (human melanoma Mel-6; 1.5 mg/kg, 18 day): 100% | V (tumor volume) M + m (human melanoma Mel-6; 1.5 mg/kg, 25 day): 77.5 + 46.4 | percent change in tumor volume Vt/Vt−1 (human melanoma Mel-6; 1.5 mg/kg, 25 day): 302.0 ± 186.0% | V (tumor volume) M + m (human melanoma Mel-6; 1.5 mg/kg, 33 day): 342.0 + 142.0 | percent change in tumor volume Vt/Vt−1 (human melanoma Mel-6; 1.5 mg/kg, 33 day): 428.0 ± 313.1% | V (tumor volume) M + m (human melanoma Mel-6; 1.5 mg/kg, 39 day): 435.0 + 187.0 | percent change in tumor volume Vt/Vt−1 (human melanoma Mel-6; 1.5 mg/kg, 39 day): 23.2 ± 22.1% | V (tumor volume) M + m (human melanoma Mel-6; 1.5 mg/kg, 46 day): 662.0 + 417.0 | percent change in tumor volume Vt/Vt−1 (human melanoma Mel-6; 1.5 mg/kg, 46 day): 23.9 + 31.0% | V (tumor volume) M + m (human melanoma Mel-6; 1.5 mg/kg, 53 day): 783.0 + 423.0 | percent change in tumor volume Vt/Vt−1 (human melanoma Mel-6; 1.5 mg/kg, 53 day): 18.6 + 54.0% | V (tumor volume) M + m (human melanoma Mel-6; 4.5 mg/kg p.o. daily days 15-36, 18 day): 91.9 + 54.4 | percent change in tumor volume Vt/Vt−1 (human melanoma Mel-6; 4.5 mg/kg, 18 day): 100% | V (tumor volume) M + m (human melanoma Mel-6; 4.5 mg/kg, 25 day): 266.0 + 198.0 | percent change in tumor volume Vt/Vt−1 (human melanoma Mel-6; 4.5 mg/kg, 25 day): 166.0±93.0% | V (tumor volume) M + m (human melanoma Mel-6; 4.5 mg/kg, 33 day): 852.0 + 495.0 | percent change in tumor volume Vt/Vt−1 (human melanoma Mel-6; 4.5 mg/kg, 33 day): 276.0 ± 104.0% | V (tumor volume) M + m (human melanoma Mel-6; 4.5 mg/kg, 39 day): 1129.0 + 600.0 | percent change in tumor volume Vt/Vt−1 (human melanoma Mel-6; 4.5 mg/kg, 39 day): 39.8 ± 27.3% | V (tumor volume) M + m (human melanoma Mel-6; 4.5 mg/kg, 46 day): 1354.0 + 735.0 | percent change in tumor volume Vt/Vt−1 (human melanoma Mel-6; 4.5 mg/kg, 46 day): 19.6 ± 17.5% | V (tumor volume) M + m (human melanoma Mel-6; 4.5 mg/kg, 53 day): 1550.0 + 780.0 | percent change in tumor volume Vt/Vt−1 (human melanoma Mel-6; 4.5 mg/kg, 53 day): 4.2 + 22.5% | delay in maximum tumor mass gain in comparison with the control (human melanoma Mel-6; in vivo): 7 days | Apoptosis (Friend erythroblastosis; Dicarbamine 4.5 mg/kg p.o. + Reaferon 100 thousand IU/kg s.c., day 3): 0.2-0.5% | area of necrosis as compared to group I (control) (Friend erythroblastosis; [6]): did not significantly change | mitotic activity as compared to the control (Friend erythroblastosis; [6]): remained within the limits of the control figures | area of necrosis and mitotic activity as compared to group II (Reaferon) (Friend erythroblastosis; Dicarbamine + Reaferon): did not show significant shifts | Apoptosis (Friend erythroblastosis; Dicarbamine + Reaferon, days 7 and 14): 0.5% | Myelocytes [2]: 0 in mm^3
